In patent publication US20260284009A1, “COMPOUNDS FOR NOS-RELATED CANCERS AND METHODS OF USE” (YISSUM RESEARCH DEVELOPMENT COMPANY OF THE HEBREW …, priority 2023, published 2026):

Assays:
[1] = tested on: U87-MG human glioblastoma cell line; assay: 3-Ntyr levels in U87-MG cells after treatment; assay type: cell-based; details: compared to the control, not significant (FIGS. 12C-12D)
[2] = tested on: CD70; assay: CD70 expression level in U87-MG cells; assay type: cell-based, human; details: both the lower and higher doses, compared to the control; not statistically significant (FIG. 13)
[3] = tested on: SH-SY5Y cells; assay: Nitrite (Griess) assay in SH-SY5Y cells; assay type: cell-based, human; details: 7-NI
Method: Human neuroblastoma (“NB”) SH-SY5Y cells were obtained from the American Type Culture Collection (ATCC) and maintained in Dulbecco's modified Eagle's medium (DMEM) and Ham's F-12 (1:1) supplemented with 10% fetal bovine serum, 2 mM L-glutamine, and 100 U/ml penicillin-G/[…] streptomycin in the humidified atmosphere (37° C., 5% CO2). Cells were plated onto 25 cm^2 and 75 cm^2 at a density of […] respectively for Western blotting (WB) and 1×10^5 for immunofluorescence. The SH-SY5Y cells were treated with 100 μM 7-nitroindazole (7-NI) for 24 hr. This concentration was confirmed in the dose-response experiment (FIG. 1) using an MTT viability assay.
Released NO was measured with Griess assay Kit (Sigma-Aldrich, Cat. No. 23479) using the manufacturer's instructions.
SH-SY5Y cells were plated in 6 well plates, as well as on 22 mm^2 coverslips at a density of 6.0×10^4 cells/cm^2 and transfected with 20 nM nNOS siRNA (SEQ ID NO: 4) for 24 h, with the use of Lipofectamine RNAi MAX (56530, Invitrogen) according to the manufacturer's protocol. Then cells were washed with phosphate-buffered saline (PBS) and harvested for WB and fixed for immunofluorescence.

[4] = tested on: SH-SY5Y cells; assay: Clonogenic survival of SH-SY5Y cells; assay type: cell-based, human; details: 100 μM 7-NI or 20 nM siRNA (SEQ ID NO: 4), n=4
Method: In FIGS. 3A-3B, for quantitative analysis data, all individual data series are presented as biological replicates (n=4) for all groups. Data are presented as mean±SEM. Statistical significance was determined using a One-way ANOVA followed by Fisher's LSD multiple comparison post hoc test. *P<0.05, **P<0.01, and ns=not significant.
FIG. 3A: Representative well images of clonogenic growth following administration of the control (“SH-SY5Y”), 0.1% DMSO (“SH-SY5Y+NC”), 100 μM 7-NI (“SH-SY5Y+7-NI”), or 20 nM siRNA (SEQ ID NO: 4) (“SH-SY5Y+si-nNOS”).
FIG. 3B: Quantitative analysis of clonogenic survival for the experiments of FIG. 3A.

[5] = tested on: SH-SY5Y cells; assay: Clonogenic survival assay in SH-SY5Y cells; assay type: cell-based, human; details: 7-NI, 14 days
Method: Cells were seeded into 6-well plates at concentrations of 500/well or 1000/well in triplicates. After 24 hours, 7-NI was added, or cells were transiently transfected with siRNA-nNOS, as described above (SEQ ID NO: 4), before changing to serum-containing medium. Cells were incubated for 14 days to form visible colonies. Colonies were stained with crystal violet, washed with PBS, air-dried, and imaged. The colonies were visualized using ImageJ software. Cell colonies of greater than 50 cells were identified and counted.

[6] = tested on: U87-MG-xenografted mice; assay: Survival of U87-MG-xenografted mice; assay type: in vivo; details: 80 or 120 mg/kg 7-NI daily, vs saline vehicle
[7] = tested on: U87-MG cells; assay: Western blot of U87-MG cells (3-Ntyr, CD70, iNOS, nNOS); assay type: cell-based, human; details: vs control and vehicle
Method: Human glioblastoma U87-MG cells were obtained from the American Type Culture Collection (ATCC) and maintained in Dulbecco's modified Eagle's Medium (DMEM) and Ham's F-12 (1:1) supplemented with 10% fetal bovine serum, 2 mM L-glutamine, and 100 U/ml penicillin-G/[…] streptomycin in the humidified atmosphere (37° C., 5% CO2). Cells were plated onto 25 cm^2 and 75 cm^2 at a density of […] respectively for Western blotting (WB) and 1×10^5 for immunofluorescence. The U87-MG cells were treated with 100 μM 7-nitroindazole (7-NI) for 24 hr. This concentration was confirmed in the dose-response experiment (FIG. 7) using an MTT viability assay.
Cells were lysed in ice-cold RIPA buffer containing 50 mM Tris-HCl, 1% Nonidet P-40, 0.25% sodium deoxycholate, 150 mM NaCl, protease-, and phosphatase inhibitor cocktails, pH 7.4. After sonication, the lysates were centrifuged at 17,000 g for 30 min at 4° C., and the supernatant was collected. The protein concentrations were determined with the BCA protein assay. Proteins were resolved by SDS-PAGE, transferred to a PVDF membrane, and probed with the following antibodies: anti-CD70 (rabbit, diluted 1:1000), and anti-3-Nitrotyrosine (rabbit, diluted 1:5000) from Abcam. All primary antibodies, except anti-3-Nitrotyrosine, were purchased from Cell Signaling Technology. The blots were then visualized using an enhanced chemiluminescence (ECL) system.

[8] = tested on: SH-SY5Y cells; assay: Xenograft neuroblastoma model, SH-SY5Y cells in NSG mice; assay type: in vivo; details: NSG male mice, 80 mg/kg 7-NI intraperitoneally three times per week, one month, vs control
Method: A xenograft neuroblastoma model was generated by injecting 4.0×10^6 SH-SY5Y cells (in a 50:50 mixture of PBS and matrigel basement membrane matrix) into the subcutaneous tissue in the flank of NOD SCID Gamma (NSG) male mice. Mice were 6-8 weeks old at time of injections. The mice were examined for 1 month.
Two treatment groups of mice were used (n=8), wherein one group was administered control, and the second group was administered 80 mg/kg of 7-NI administered intraperitoneally three times per week. Treatment started after five days from the injection with SH-SY5Y cells. After one month, all mice were euthanized, and tumors were harvested for ex vivo analysis and histology. Tumor volume was measured using calipers and was calculated as (length^2*width)/2

[9] = 7-NI, not statistically significantly

Structure (SMILES)	3-Ntyr levels ([1]; higher dose)	3-Ntyr levels ([1]; lower dose)	expression level of CD70 [2]	nitrite content (Griess assay) [3]	clonogenic survival [4]	number of colonies [5]	survival [6]	3-Ntyr levels ([7]; 100 μM 7-NI, 24 hr)	expression level of iNOS ([7]; 7-NI)	expression level of CD70 [7, 9]	expression level of nNOS [7, 9]	average tumor size [8]
CC(=N)NCCCC[C@H](N)C(=O)O [L-NIL, N^6-(1-iminoethyl)-L-lysine]	reduced	slightly increased	slightly decreased									
O=[N+]([O-])c1cccc2cn[nH]c12 [7-NI, 7-nitroindazole]				dramatic reduction	significant decrease	decrease	increased survival	significantly reduced	unchanged	slightly decreased	slightly decreased	significantly smaller
